US20240168030A1, “DIRECT FLUORESCENT GLYCAN LABELING” (BIO-TECHNE CORPORATION, priority 2019, published 2024)

Columns and labels:
Format in all cases: biochemical
[1] = molecular target: T1, FUT9 (Homo sapiens, UniProt Q9Y231); assay: Fluorescent labeling with fluorophore-conjugated fucose by FUT9; design: key to Tolerance of the fluorophore by FUT9: +++: indicated by number of + signs; ++: indicated by number of + signs; indicated by number of + signs; details: for Tolerance of the fluorophore by FUT9: fluorophore-conjugated fucose donor, acceptor GlcNAc of lactosamine, FIG. 9
T1 construct: purchased Bio-Techne (Minneapolis, MN)
T1 sequence (Q9Y231 1-359): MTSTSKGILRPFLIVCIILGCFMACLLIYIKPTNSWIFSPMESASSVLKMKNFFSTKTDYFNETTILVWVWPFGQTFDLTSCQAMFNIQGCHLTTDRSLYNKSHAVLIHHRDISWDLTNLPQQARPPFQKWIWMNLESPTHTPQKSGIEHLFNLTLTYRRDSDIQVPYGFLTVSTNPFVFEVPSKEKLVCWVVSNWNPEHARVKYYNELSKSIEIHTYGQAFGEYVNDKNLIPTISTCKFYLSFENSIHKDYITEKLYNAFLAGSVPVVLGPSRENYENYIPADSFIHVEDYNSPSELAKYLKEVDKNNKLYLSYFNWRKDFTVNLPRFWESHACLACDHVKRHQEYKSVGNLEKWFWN
Description: (§1) FIG. 9A-FIG. 9B show exemplary results of probing substrate glycans of various fucosyltransferases on fetuin and asialofetuin. FIG. 9A. Probing substrate glycans of fucosyltransferases with guanosine 5′-diphosphate activated Cy5 conjugated fucose (GDP-Cy5-Fuc). […] FUT9 labeled itself (indicated by an arrow in the gel). FIG. 9B. Tolerance of Alexa-Fluor®555 (555), Alexa-Fluor®488 (488), and Cy5 by the indicated fucosyltransferases. All reactions were incubated at 37° C. for 30 minutes and then separated on SDS-PAGE and imaged with silver staining (upper panels) and fluorescent imager (lower panels). M, molecular marker.
FIG. 10A-FIG. 10D show exemplary results of probing core-6 fucosylation on antibodies by FUT8 incorporation of fluorophores. FIG. 10A. Results of probing substrate glycans of FUT8 (F8) and FUT9 (F9) on Cantuzumab, an anti-Muc1 therapeutic antibody, and NIST reference mAb 8671 using guanosine 5′-diphosphate activated Alexa-Fluor®555 conjugated fucose (GDP-AF555-Fuc) (555), GDP-Cy5-fucose (Cy5), and guanosine 5′-diphosphate activated Alexa-Fluor®488 conjugated fucose (GDP-AF488-Fuc) (488) as donor substrates. Cantuzumab was expressed in FUT8 knockout cells and is devoid of core-6 fucose. Molecular marker (MM) is a prestained Western molecular marker (Bio-Rad Laboratories, Hercules, CA). […] The product of each reaction was separated using SDS-PAGE and imaged with trichloroethanol (TCE) staining (upper panel) and fluorescent imager (lower panel). Labeling on the light chains of the antibodies by Alexa-Fluor®555 is likely the result of non-specific staining due to the use of unpurified GDP-AF555-Fuc that contained free Alexa-Fluor®555. FIG. 10B. […] FIG. 10C. […] FIG. 10D. Schematics of the glycan structures analyzed in FIG. 10B and FIG. 10C.
Mouse IgG (R&D Systems, Minneapolis, MN) was digested with Endo S thoroughly and labeled with 0.3 μg of FUT9 and 0.2 nmol of GDP-Cy5-Fuc in 30 μl at 37° C. for the indicated time points. The glycans were also pretreated with B4GalT2 for 5 minutes at 37° C. and then labeled in the same way. The reactions were separated on 15% SDS PAGE. B4GalT2 pretreatment converted all G1′ to G2′. Maximal labeling on G1′ and G2′ were achieved around 30 minutes. […] The heavy chain (HC) and light chain (LC) were visible in the TCE image. M, Western blot marker (Bio-Rad Laboratories, Hercules, CA).
(§2) For a typical labeling reaction, 1 μg to 5 μg target protein was mixed with 0.2 nmol GDP-f-Fuc and 0.2 μg of a fucosyltransferase in 30 μL buffer of 25 mM Tris pH 7.5, 10 mM MnCl2. The mixture was incubated at 37° C. for 30 minutes. The reaction was then separated by sodium dodecyl sulfate—polyacrylamide gel electrophoresis (SDS-PAGE) and the gel was directly imaged using a fluorescent imager FluorChem M ProteinSimple, Bio-Techne, Minneapolis, MN), followed by imaging with traditional protein imaging methods such as silver staining or trichloroethanol (TCE) staining.
(§3) The four enzymes tolerated the three fluorophores to different levels.

[2] = molecular target: T2, FUT7 (Homo sapiens, UniProt Q11130); assay: Fluorescent labeling with fluorophore-conjugated fucose by FUT7; design: key to Tolerance of the fluorophore by FUT7: +++: indicated by number of + signs; ++: indicated by number of + signs; indicated by number of + signs; details: for Tolerance of the fluorophore by FUT7: fluorophore-conjugated fucose donor, acceptor GlcNAc of sialylactosamine, FIG. 9
T2 sequence (Q11130 1-342): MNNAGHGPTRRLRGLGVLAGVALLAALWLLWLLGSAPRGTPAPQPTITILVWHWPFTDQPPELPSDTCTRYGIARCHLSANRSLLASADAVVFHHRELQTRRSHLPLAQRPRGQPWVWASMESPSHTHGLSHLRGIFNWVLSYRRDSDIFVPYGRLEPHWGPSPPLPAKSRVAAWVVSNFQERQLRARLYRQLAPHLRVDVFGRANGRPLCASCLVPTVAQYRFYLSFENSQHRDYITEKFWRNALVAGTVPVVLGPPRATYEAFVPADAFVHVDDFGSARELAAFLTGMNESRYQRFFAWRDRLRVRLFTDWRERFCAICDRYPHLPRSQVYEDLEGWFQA
Description: as §1, §2, §3

[3] = molecular target: T3, FUT6 (Homo sapiens, UniProt P51993); assay: Fluorescent labeling with fluorophore-conjugated fucose by FUT6; design: key: +++: indicated by number of + signs; ++: indicated by number of + signs; indicated by number of + signs; details: fluorophore-conjugated fucose donor; acceptor GlcNAc of lactosamine, sialylation on terminal Gal is flexible; FIG. 9
T3 sequence (P51993 1-359): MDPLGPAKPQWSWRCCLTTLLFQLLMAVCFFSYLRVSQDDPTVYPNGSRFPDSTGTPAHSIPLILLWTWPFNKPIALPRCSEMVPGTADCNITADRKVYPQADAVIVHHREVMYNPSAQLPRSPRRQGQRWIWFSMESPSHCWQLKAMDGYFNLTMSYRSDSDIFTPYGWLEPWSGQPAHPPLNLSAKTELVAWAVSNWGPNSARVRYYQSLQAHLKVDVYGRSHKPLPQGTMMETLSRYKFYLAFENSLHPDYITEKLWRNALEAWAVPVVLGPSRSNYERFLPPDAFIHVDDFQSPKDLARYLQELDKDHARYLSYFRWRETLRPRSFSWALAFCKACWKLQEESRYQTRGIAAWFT
Description: as §1, §2, §3

[4] = among Cy5-, AlexaFluor® 488-, and AlexaFluor® 555-conjugated fucoses, FIG. 9B

Row | Substance | Tolerance of the fluorophore by FUT9 [1] | Fluorophore preference of FUT7 [2, 4] | Tolerance of the fluorophore by FUT7 [2] | Tolerance of the fluorophore by FUT6 [3] | Fluorophore preference of FUT9 [1, 4]
1 | guanosine 5′-diphosphate activated Alexa-Fluor®488 conjugated fucose [GDP-AF488-Fuc] | +++ | preferred | ++ | ++ | 
2 | guanosine 5′-diphosphate activated Alexa-Fluor®555 conjugated fucose [GDP-AF555-Fuc] | +++ |  | + | ++ | preferred
